Source: patent US20230085307A1, “PYRIDAZINONE COMPOUND AND HERBICIDE” (NISSAN CHEMICAL CORPORATION, priority 2019, published 2023)

Assays:
late watergrass = test: Test Example 1: herbicidal activity, application before weed generation under submerged conditions (Table 16, symbol A); type: in vivo, late watergrass (Echinochloa oryzicola); conditions: amount of applied herbicide 320 g/ha
In short: (§1)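 Emulsion formulation, water-diluted to set dose, was put onto the flooded surface (4 cm depth, alluvial soil) the same day weeds were sown and 2.5-leaf rice transplanted. After 3 weeks at 25-30 °C under glass, each species was rated 0 (≤5% kill) to 5 (≥90% kill).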

Japanese bulrush = test: Test Example 1: herbicidal activity, application before weed generation under submerged conditions (Table 16, symbol B); type: in vivo, Japanese bulrush (Schoenoplectus juncoides); conditions: amount of applied herbicide 320 g/ha
In short: as §1

oval-leafed pondweed = test: Test Example 1: herbicidal activity, application before weed generation under submerged conditions (Table 16, symbol C); type: in vivo, oval-leafed pondweed (Monochoria vaginalis); conditions: amount of applied herbicide 320 g/ha
In short: as §1

barnyard grass [1] = test: Test Example 3: herbicidal effect by foliage application, Wagner pot (Table 18, symbol H); type: in vivo, barnyard grass (Echinochloa crus-galli)
In short: (§2)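 Plants were sown in alluvial soil held under 0.1–0.5 cm standing water and grown 14 days in a greenhouse at 25–30 °C. An emulsifiable formulation, water-diluted to the set dose, was then sprayed onto the foliage, and effects were scored three weeks later using previously defined criteria.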

Chinese sprangletop = test: Test Example 3: herbicidal effect by foliage application, Wagner pot (Table 18, symbol D); type: in vivo, chinese sprangletop (Leptochloa chinensis)
In short: as §2

rice flat sedge = test: Test Example 3: herbicidal effect by foliage application, Wagner pot (Table 18, symbol E); type: in vivo, rice flat sedge (Cyperus iria)
In short: as §2

southern crabgrass [2] = test: Test Example 4: herbicidal effect by soil treatment (Table 19, symbol F); type: in vivo, southern crabgrass (Digitaria ciliaris); conditions: amount of applied herbicide 320 g/ha
In short: (§3)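 Seeds were sown in sterilized diluvial soil and covered with about 1.5 cm of soil. An emulsion formulation diluted with water to a predetermined herbicide amount was sprayed evenly onto the soil surface. Plants grew in a greenhouse at 25° C. to 30° C., and the effect was scored three weeks after application using criteria from an earlier test.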

green foxtail [3] = test: Test Example 4: herbicidal effect by soil treatment (Table 19, symbol G); type: in vivo, green foxtail (Setaria viridis); conditions: amount of applied herbicide 320 g/ha
In short: as §3

barnyard grass [4] = test: Test Example 4: herbicidal effect by soil treatment (Table 19, symbol H); type: in vivo, barnyard grass (Echinochloa crus-galli); conditions: amount of applied herbicide 320 g/ha
In short: as §3

wild oat [5] = test: Test Example 4: herbicidal effect by soil treatment (Table 19, symbol I); type: in vivo, wild oat (Avena fatua); conditions: amount of applied herbicide 320 g/ha
In short: as §3

blackgrass [6] = test: Test Example 4: herbicidal effect by soil treatment (Table 19, symbol J); type: in vivo, blackgrass (Alopecurus myosuroides); conditions: amount of applied herbicide 320 g/ha
In short: as §3

Italian ryegrass [7] = test: Test Example 4: herbicidal effect by soil treatment (Table 19, symbol K); type: in vivo, Italian ryegrass (Lolium multiflorum); conditions: amount of applied herbicide 320 g/ha
In short: as §3

windgrass [8] = test: Test Example 4: herbicidal effect by soil treatment (Table 19, symbol L); type: in vivo, windgrass (Apera spica-venti); conditions: amount of applied herbicide 320 g/ha
In short: as §3

velvetleaf [9] = test: Test Example 4: herbicidal effect by soil treatment (Table 19, symbol M); type: in vivo, velvetleaf (Abutilon theophrasti); conditions: amount of applied herbicide 320 g/ha
In short: as §3

redroot pigweed [10] = test: Test Example 4: herbicidal effect by soil treatment (Table 19, symbol N); type: in vivo, redroot pigweed (Amaranthus retroflexus); conditions: amount of applied herbicide 320 g/ha
In short: as §3

lambsquarters [11] = test: Test Example 4: herbicidal effect by soil treatment (Table 19, symbol O); type: in vivo, lambsquarters (Chenopodium album); conditions: amount of applied herbicide 320 g/ha
In short: as §3

false cleavers = test: Test Example 4: herbicidal effect by soil treatment (Table 19, symbol Q); type: in vivo, false cleavers (Galium spurium); conditions: amount of applied herbicide 320 g/ha
In short: as §3

persian speedwell [12] = test: Test Example 4: herbicidal effect by soil treatment (Table 19, symbol R); type: in vivo, Persian speedwell (Veronica persica); conditions: amount of applied herbicide 320 g/ha
In short: as §3

southern crabgrass [13] = test: Test Example 5: herbicidal effect by foliage application, plastic box (Table 20, symbol F); type: in vivo, southern crabgrass (Digitaria ciliaris); conditions: foliage application, 320 g/ha, three weeks after application
In short: (§4)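 Plants sown in sterilized diluvial soil and grown 14 days in a greenhouse at 25° C to 30° C, then sprayed on the foliage with the compound's emulsion diluted in water to a predetermined herbicide amount. Injury to weeds and crops scored three weeks after application on a visual rating scale.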

green foxtail [14] = test: Test Example 5: herbicidal effect by foliage application, plastic box (Table 20, symbol G); type: in vivo, green foxtail (Setaria viridis); conditions: foliage application, 320 g/ha, three weeks after application
In short: as §4

barnyard grass [15] = test: Test Example 5: herbicidal effect by foliage application, plastic box (Table 20, symbol H); type: in vivo, barnyard grass (Echinochloa crus-galli); conditions: foliage application, 320 g/ha, three weeks after application
In short: as §4

wild oat [16] = test: Test Example 5: herbicidal effect by foliage application, plastic box (Table 20, symbol I); type: in vivo, wild oat (Avena fatua); conditions: foliage application, 320 g/ha, three weeks after application
In short: as §4

blackgrass [17] = test: Test Example 5: herbicidal effect by foliage application, plastic box (Table 20, symbol J); type: in vivo, blackgrass (Alopecurus myosuroides); conditions: foliage application, 320 g/ha, three weeks after application
In short: as §4

Italian ryegrass [18] = test: Test Example 5: herbicidal effect by foliage application, plastic box (Table 20, symbol K); type: in vivo, Italian ryegrass (Lolium multiflorum); conditions: foliage application, 320 g/ha, three weeks after application
In short: as §4

windgrass [19] = test: Test Example 5: herbicidal effect by foliage application, plastic box (Table 20, symbol L); type: in vivo, windgrass (Apera spica-venti); conditions: foliage application, 320 g/ha, three weeks after application
In short: as §4

velvetleaf [20] = test: Test Example 5: herbicidal effect by foliage application, plastic box (Table 20, symbol M); type: in vivo, velvetleaf (Abutilon theophrasti); conditions: foliage application, 320 g/ha, three weeks after application
In short: as §4

redroot pigweed [21] = test: Test Example 5: herbicidal effect by foliage application, plastic box (Table 20, symbol N); type: in vivo, redroot pigweed (Amaranthus retroflexus); conditions: foliage application, 320 g/ha, three weeks after application
In short: as §4

lambsquarters [22] = test: Test Example 5: herbicidal effect by foliage application, plastic box (Table 20, symbol O); type: in vivo, lambsquarters (Chenopodium album); conditions: foliage application, 320 g/ha, three weeks after application
In short: as §4

chickweed [23] = test: Test Example 5: herbicidal effect by foliage application, plastic box (Table 20, symbol P); type: in vivo, common chickweed (Stellaria media); conditions: foliage application, 320 g/ha, three weeks after application
In short: as §4

persian speedwell [24] = test: Test Example 5: herbicidal effect by foliage application, plastic box (Table 20, symbol R); type: in vivo, Persian speedwell (Veronica persica); conditions: foliage application, 320 g/ha, three weeks after application
In short: as §4

chickweed [25] = test: Test Example 4: herbicidal effect by soil treatment (Table 19, symbol P); type: in vivo, common chickweed (Stellaria media); conditions: amount of applied herbicide 320 g/ha
In short: as §3

[26] = amount of applied herbicide 320 g/ha

Cc1nn(CC#N)c(=O)c(-c2c(-c3ccc(F)cc3)sc3ccc(F)cc23)c1O [2-430]
Herbicidal effect, A: late watergrass (late watergrass): 3 (Herbicidal rate of 40% or more and less than 70%) | Herbicidal effect, B: Japanese bulrush (Japanese bulrush): 0 (Herbicidal rate of 5% or less (almost no effect)) | Herbicidal effect, C: oval-leafed pondweed (oval-leafed pondweed): 0 (Herbicidal rate of 5% or less (almost no effect)) | herbicidal effect on H: barnyard grass (barnyard grass [1]; [26]): 2 (Herbicidal rate of 20% or more and less than 40%) | herbicidal effect on D: Chinese sprangletop (Chinese sprangletop; [26]): 0 (Herbicidal rate of 5% or less (almost no effect)) | herbicidal effect on E: rice flat sedge (rice flat sedge; [26]): 3 (Herbicidal rate of 40% or more and less than 70%) | herbicidal effect, F: southern crabgrass (southern crabgrass [2]): 0 (Herbicidal rate of 5% or less (almost no effect)) | herbicidal effect, G: green foxtail (green foxtail [3]): 0 (Herbicidal rate of 5% or less (almost no effect)) | herbicidal effect, H: barnyard grass (barnyard grass [4]): 0 (Herbicidal rate of 5% or less (almost no effect)) | herbicidal effect, I: wild oat (wild oat [5]): 0 (Herbicidal rate of 5% or less (almost no effect)) | herbicidal effect, J: blackgrass (blackgrass [6]): 0 (Herbicidal rate of 5% or less (almost no effect)) | herbicidal effect, K: Italian ryegrass (Italian ryegrass [7]): 0 (Herbicidal rate of 5% or less (almost no effect)) | herbicidal effect, L: windgrass (windgrass [8]): 0 (Herbicidal rate of 5% or less (almost no effect)) | herbicidal effect, M: velvetleaf (velvetleaf [9]): 2 (Herbicidal rate of 20% or more and less than 40%) | herbicidal effect, N: redroot pigweed (redroot pigweed [10]): 5 (Herbicidal rate of 90% or more (almost completely withered)) | herbicidal effect, O: lambsquarters (lambsquarters [11]): 1 (Herbicidal rate of 5% or more and less than 20%) | herbicidal effect, Q: false cleavers (false cleavers): 0 (Herbicidal rate of 5% or less (almost no effect)) | herbicidal effect, R: persian speedwell (persian speedwell [12]): 0 (Herbicidal rate of 5% or less (almost no effect)) | F: southern crabgrass, herbicidal effect grade (southern crabgrass [13]): 0 (Herbicidal rate of 5% or less (almost no effect)) | G: green foxtail, herbicidal effect grade (green foxtail [14]): 2 (Herbicidal rate of 20% or more and less than 40%) | H: barnyard grass, herbicidal effect grade (barnyard grass [15]): 1 (Herbicidal rate of 5% or more and less than 20%) | I: wild oat, herbicidal effect grade (wild oat [16]): 0 (Herbicidal rate of 5% or less (almost no effect)) | J: blackgrass, herbicidal effect grade (blackgrass [17]): 0 (Herbicidal rate of 5% or less (almost no effect)) | K: Italian ryegrass, herbicidal effect grade (Italian ryegrass [18]): 3 (Herbicidal rate of 40% or more and less than 70%) | L: windgrass, herbicidal effect grade (windgrass [19]): 0 (Herbicidal rate of 5% or less (almost no effect)) | M: velvetleaf, herbicidal effect grade (velvetleaf [20]): 2 (Herbicidal rate of 20% or more and less than 40%) | N: redroot pigweed, herbicidal effect grade (redroot pigweed [21]): 3 (Herbicidal rate of 40% or more and less than 70%) | O: lambsquarters, herbicidal effect grade (lambsquarters [22]): 3 (Herbicidal rate of 40% or more and less than 70%) | P: chickweed, herbicidal effect grade (chickweed [23]): 5 (Herbicidal rate of 90% or more (almost completely withered)) | R: persian speedwell, herbicidal effect grade (persian speedwell [24]): 4 (Herbicidal rate of 70% or more and less than 90%)

CCCC(=O)Oc1c(C)nn(C)c(=O)c1-c1c(-c2ccc(F)cc2OC)sc2cc(OC)c(OC)cc12 [5-061]
Herbicidal effect, A: late watergrass (late watergrass): 5 (Herbicidal rate of 90% or more (almost completely withered)) | Herbicidal effect, B: Japanese bulrush (Japanese bulrush): 3 (Herbicidal rate of 40% or more and less than 70%) | Herbicidal effect, C: oval-leafed pondweed (oval-leafed pondweed): 3 (Herbicidal rate of 40% or more and less than 70%) | herbicidal effect on barnyard grass (H) (barnyard grass [1]; 320 g/ha): 5 (Herbicidal rate of 90% or more (almost completely withered)) | herbicidal effect on Chinese sprangletop (D) (Chinese sprangletop; 320 g/ha): 3 (Herbicidal rate of 40% or more and less than 70%) | herbicidal effect on rice flat sedge (E) (rice flat sedge; 320 g/ha): 4 (Herbicidal rate of 70% or more and less than 90%) | F: southern crabgrass, herbicidal effect grade (southern crabgrass [2]): 0 (Herbicidal rate of 5% or less (almost no effect)) | G: green foxtail, herbicidal effect grade (green foxtail [3]): 0 (Herbicidal rate of 5% or less (almost no effect)) | H: barnyard grass, herbicidal effect grade (barnyard grass [4]): 0 (Herbicidal rate of 5% or less (almost no effect)) | I: wild oat, herbicidal effect grade (wild oat [5]): 0 (Herbicidal rate of 5% or less (almost no effect)) | J: blackgrass, herbicidal effect grade (blackgrass [6]): 0 (Herbicidal rate of 5% or less (almost no effect)) | K: Italian ryegrass, herbicidal effect grade (Italian ryegrass [7]): 0 (Herbicidal rate of 5% or less (almost no effect)) | L: windgrass, herbicidal effect grade (windgrass [8]): 0 (Herbicidal rate of 5% or less (almost no effect)) | M: velvetleaf, herbicidal effect grade (velvetleaf [9]): 0 (Herbicidal rate of 5% or less (almost no effect)) | N: redroot pigweed, herbicidal effect grade (redroot pigweed [10]): 0 (Herbicidal rate of 5% or less (almost no effect)) | O: lambsquarters, herbicidal effect grade (lambsquarters [11]): 0 (Herbicidal rate of 5% or less (almost no effect)) | P: chickweed, herbicidal effect grade (chickweed [25]): 3 (Herbicidal rate of 40% or more and less than 70%) | Q: false cleavers, herbicidal effect grade (false cleavers): 0 (Herbicidal rate of 5% or less (almost no effect)) | R: persian speedwell, herbicidal effect grade (persian speedwell [12]): 2 (Herbicidal rate of 20% or more and less than 40%) | herbicidal effect on southern crabgrass (F) (southern crabgrass [13]): 4 (Herbicidal rate of 70% or more and less than 90%) | herbicidal effect on green foxtail (G) (green foxtail [14]): 4 (Herbicidal rate of 70% or more and less than 90%) | herbicidal effect on barnyard grass (H) (barnyard grass [15]): 4 (Herbicidal rate of 70% or more and less than 90%) | herbicidal effect on wild oat (I) (wild oat [16]): 4 (Herbicidal rate of 70% or more and less than 90%) | herbicidal effect on blackgrass (J) (blackgrass [17]): 4 (Herbicidal rate of 70% or more and less than 90%) | herbicidal effect on Italian ryegrass (K) (Italian ryegrass [18]): 4 (Herbicidal rate of 70% or more and less than 90%) | herbicidal effect on windgrass (L) (windgrass [19]): 2 (Herbicidal rate of 20% or more and less than 40%) | herbicidal effect on velvetleaf (M) (velvetleaf [20]): 0 (Herbicidal rate of 5% or less (almost no effect)) | herbicidal effect on lambsquarters (O) (lambsquarters [22]): 3 (Herbicidal rate of 40% or more and less than 70%) | herbicidal effect on persian speedwell (R) (persian speedwell [24]): 5 (Herbicidal rate of 90% or more (almost completely withered))
